Data on three molecules can be found in patent US20240269295A1, “C-MET TARGETED APTAMER DRUG CONJUGATE AND METHOD FOR TREATING TUMOR” (Hangzhou Institute of Medicine, Chinese Academy of Sciences, priority 2023, published 2024).

Series [1] relates to large triple-negative breast cancer PDX model tumors. The series can be described thus: Experiment against large tumors in vivo after multiple times of administration. On the set-up: species or system mice. The conditions noted are these: Docetaxel alone, 20 mg/kg once every seven days, two times. The protocol:
Six mice with a tumor size of 400-500 mm^3 in a triple-negative breast cancer PDX model were randomly divided into two groups. In the experiment, the two groups were injected with a clinical first-line chemotherapy drug, Docetaxel and a c-Met targeted aptamer drug conjugate c-Met-ApDC through the tail vein, respectively, at a dosage of 20 mg/kg Docetaxel (administrated once every seven days, for two times in total) or 0.36 mg/kg equivalent of MMAE (administrated once every four days, for three times in total).
The weights of the mice, the lengths of tumors (a), and the widths of tumors (b) were measured and recorded at each injection. The calculation formula of tumor volume (V) was: V=(a×b^2)/2. The tumor volume exceeding 1,500 mm^3 or the weight loss exceeding 15% was taken as an endpoint of the experiment. The mice were euthanized, and the experiment was terminated. In the group administrated with Docetaxel, 0.36 mg/kg equivalent of MMAE was injected into the mice through the tail vein once every four days continuously for three times after the tumor volume exceeded 1,500 mm^3. […] It was almost less than 200 mm^3 after 44 days.

Series [2] has the same test system. The series can be described thus: Experiment against large tumors in vivo (triple-negative breast cancer PDX). The conditions noted are these: tumor 400-500 mm^3; tail vein, 20 mg/kg once every seven days, two times. On the set-up: species or system mice. On the procedure: Six mice with a tumor size of 400-500 mm^3 in a triple-negative breast cancer PDX model were randomly divided into two groups. In the experiment, the two groups were injected with a clinical first-line chemotherapy drug Docetaxel, and a c-Met targeted aptamer drug conjugate c-Met-ApDC through the tail vein, respectively at a dosage of 20 mg/kg Docetaxel (administrated once every seven days, for two times in total) or 0.36 mg/kg equivalent of MMAE (administrated once every four days, for three times in total). The weights of the mice, the lengths of tumors (a), and the widths of tumors (b) were measured and recorded at each injection. The calculation formula of tumor volume (V) was: V=(a×b^2)/2. The tumor volume exceeding 1,500 mm^3 or the weight loss exceeding 15% was taken as an endpoint of the experiment. The mice were euthanized, and the experiment was terminated. […] On about seven days of administration, the tumor volume in the group administrated with the chemotherapeutic drug began to increase, while the tumor of the group administrated with the reagent of the present invention began to decrease.

Series [3] concerns the target T1, c-Met (hepatocyte growth factor receptor) (UniProt P08581 P08581:25-932). The series can be described thus: SPR; concentrations 100-500 nM; unit μm [sic]. The protocol:
(§1) The specific experimental process was as follows: the c-Met protein-bound aptamer CLN0004-52 (sequence SEQ: ID2: […]) reported in the literature was selected and modified with a mercapto group at the 3-terminal and then conjugated with vcMMAE to construct the c-Met targeted aptamer drug conjugate CLN0004-52-MMAE. The affinity of CLN0004-52-MMAE and SL1-MMAE with a c-Met protein was characterized by surface plasmon resonance spectroscopy. The binding forces of two c-Met ApDCs were determined at concentrations of 100, 200, 300, 400, and 500 nM. […] Strong affinity stated that it could bind with c-Met more strongly, enhancing the therapeutic effect.
For orientation: SPR reads the build-up and loss of mass on a sensor chip optically.

Series [4] concerns the target T1, c-Met (hepatocyte growth factor …). Briefly: SPR; concentrations 100-500 nM. The protocol: as §1

T1 sequence (P08581 25-932, one chain of several): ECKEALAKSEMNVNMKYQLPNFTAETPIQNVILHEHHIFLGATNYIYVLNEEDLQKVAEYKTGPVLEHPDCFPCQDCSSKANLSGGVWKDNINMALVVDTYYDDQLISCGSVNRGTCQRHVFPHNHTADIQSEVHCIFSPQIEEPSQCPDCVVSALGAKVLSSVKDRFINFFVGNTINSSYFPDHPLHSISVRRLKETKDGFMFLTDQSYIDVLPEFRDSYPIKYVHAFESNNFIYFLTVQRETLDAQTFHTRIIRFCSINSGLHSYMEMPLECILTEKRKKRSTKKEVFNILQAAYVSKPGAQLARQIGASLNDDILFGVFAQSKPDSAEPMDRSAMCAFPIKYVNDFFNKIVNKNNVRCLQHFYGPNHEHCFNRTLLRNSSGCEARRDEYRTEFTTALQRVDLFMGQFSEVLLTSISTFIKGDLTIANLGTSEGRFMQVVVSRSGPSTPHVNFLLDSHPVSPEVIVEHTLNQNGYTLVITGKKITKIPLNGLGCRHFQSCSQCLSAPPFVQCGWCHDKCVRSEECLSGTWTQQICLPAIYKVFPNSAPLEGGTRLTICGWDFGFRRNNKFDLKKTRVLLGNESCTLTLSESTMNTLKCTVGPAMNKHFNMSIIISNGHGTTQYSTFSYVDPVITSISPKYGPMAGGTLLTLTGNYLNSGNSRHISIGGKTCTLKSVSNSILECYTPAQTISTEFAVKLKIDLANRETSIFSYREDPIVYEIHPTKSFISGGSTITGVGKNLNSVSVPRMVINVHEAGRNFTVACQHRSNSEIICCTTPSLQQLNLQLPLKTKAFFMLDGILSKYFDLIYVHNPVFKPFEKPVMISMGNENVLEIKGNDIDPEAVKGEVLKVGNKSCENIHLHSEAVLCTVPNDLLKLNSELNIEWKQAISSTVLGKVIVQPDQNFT

With `CC(=O)O[C@@]12CO[C@@H]1C[C@H](O)[C@@]1(C)C(=O)[C@H](O)C3=C(C)[C@@H](OC(=O)[C@H](O)[C@@H](NC(=O)OC(C)(C)C)c4ccccc4)C[C@@](O)([C@@H](OC(=O)c4ccccc4)[C@H]21)C3(C)C` [Docetaxel], the tumor volume course result in series [1] is given as “gradually increased”. In series [2], the “inhibitory effect on large tumors” value is “no apparent inhibitory effect” and the tumor volume increase was 3 times the volume.

B1: CLN0004-52-MMAE (ssDNA)
DNA: GAGTGCGTAATGGTACGATTTGGGAAGTGGCTTGGGGTGGGATTAGTTTTGG
modifications: 3'-thiol conjugated to maleimide vcMMAE
One may read the Kd as the equilibrium constant for the complex coming apart. Low values mean a tighter complex, high ones a looser complex. On to B1, for which binding in series [3] was put at a Kd of 21.5 µM.
ATCAGGCTGGATGGTAGCTCGGTCGGGGTGGGTGGGTTGGCAAGTCTGAT (ssDNA, 3'-thiol conjugated to maleimide vcMMAE) [SL1-MMAE (c-Met-ApDC)] gave a Kd in series [4] of 77.5 nM.
